In patent publication US6703370B1, “Use of ribose to treat fibromyalgia” (Bioenergy, Inc., priority 1999, dated 2004):

Columns and labels:
Type in all cases: in vivo, human
[1] = system: fibromyalgia patient; experiment: Alleviation of symptoms in a fibromyalgia patient (single case, oral ribose)
Text: A patient diagnosed with fibromyalgia had been experiencing extreme muscle pain and fatigue as well as irritable bowel syndrome, disturbed sleep, and cognitive dysfunction. They had been told by their physician that they were in the worst stage of the condition and could end up in a wheel chair within a year. They began taking ribose, one teaspoonful (about 5 grams), 4 times per day. […] They continued taking it for a week then decided to observe the effects of stopping the doses of ribose, so they discontinued the protocol for one week. […] They stated that “It is without a doubt the best product I have ever been on.”

[2] = system: patients with fibromyalgia (FM); experiment: Planned double-blind crossover study of oral ribose in fibromyalgia; details: 16 patients planned, 20 gm per day (10 gm bid), 4 weeks, crossover against dextrose placebo
Text: Following the informal studies in five subjects, a protocol was written to determine whether oral ribose administration in patients with fibromyalgia (FM) can reduce symptoms of fatigue and pain and improve the subjects' quality of life. The study endpoints will be: (1) the patient's visual analog (PVA) scale for pain, (2) the patient's analog scale for fatigue, (3) the physician's global assessment (GAphs), (4) the patient's global assessment (GAPT), (5) the Western Ontario MacMaster Questionaire (WOMAC) index, (6) SF-36 quality of life form, (7) the patient's's daily activity/events log and (8) the number of days to study discontinuation, if the patient chooses to do so, based upon his/her improved condition. The study will include 16 patients with a confirmed diagnosis of FM using a double-blind crossover design. All patients who meet entrance or screening criteria will be randomly assigned to either treatment #1 (oral dextrose as a placebo) or treatment #2 (oral ribose) at a dose of 20 gm per day (10 gm bid), as a first treatment modality. Both physician and patient will be blinded to the treatment modality. Informed consent will be obtained prior to enrolment. […] All endpoint parameters will be assessed at baseline prior to treatment, after 4 weeks of treatment one, at the end of the workout period, and again following 4 weeks of treatment 2 (“crossover” treatment modality). […]

[3] = system: fibromyalgia patients; experiment: Applicants' general finding on steady ingestion of ribose; details: steady ingestion two to four times per day over the course of a week
Text: Continued ingestion leads to greater improvement, in turn allowing the patient to endure the much needed regular exercise to further relieve the painful symptoms.

[4] = system: fibromyalgia subjects; experiment: Pilot study on the effect of ribose in alleviating the symptoms of fibromyalgia (SF-36 health status profile and subject reports)
Text: Four women subjects ranging in age from 45 to 55 were given ribose and instructed to take at least 20 grams per day, preferably divided in four doses. The recommended mode of administration was one heaping teaspoon, about five to seven grams, mixed in six to eight ounces of water, taken preferably with meals and before planned activity. Subjects were encouraged to vary the dosage according to their perceived needs. Each subject was given a health status profile (SF-36) to complete. The profile was to be filled out both before and after four weeks of ribose administration. Two of the subjects complied with filling out the profile.
Health Status Profile (SF-36):
1) General health compared to one year ago: 1=much better, 2=somewhat better, 3=about the same, 4=somewhat worse, 5=much worse
2) Energy, 2 questions, from peppy all of the time to none of the time.
3) Activities, 12 examples from vigorous to mild, scored as: limited a lot, limited a little, not limited
4) Pain: 1=none, 2=very mild, 3=mild, 4=moderate, 5=severe, 6 =very severe The results of each subject's before and after ratings are summarized in Table I.

[5] = after resuming, one teaspoonful 4 times per day, after 4 weeks

With `O=C[C@H](O)[C@H](O)[C@H](O)CO` [ribose, D-ribose] the “Irritable painful bowel syndrome” value [1, 5] was “improved their irritable painful bowel syndrome”, the “Pain, fatigue and morning stiffness” value [1, 5] was “alleviated their pain, fatigue and morning stiffness” and the “Energy and flare ups of muscle soreness” value ([1]; patient, about 5 grams 4 times per day, first week) was “more energy and fewer flare ups of muscle soreness”. For the same compound, the “Symptoms on starting ribose” value ([1]; patient, about 5 grams 4 times per day, oral) was “immediate improvement in their symptoms”, the “Symptoms after discontinuing ribose” value ([1]; protocol discontinued for one week) was “symptoms returned to their previous level” and the “Expected alleviation of achiness, fatigue and/or pain at the tender points” value [2] was “most of the patients will experience some alleviation of achiness, fatigue and/or pain at the tender points”. The “Fatigue, achiness, pain, energy and irritable bowel syndrome” value [3] was “noticeable improvement in the level of fatigue, achiness, pain, and energy, and alleviation of irritable bowel syndrome”, the “General health compared to last year, after” value ([4]; Subject #1, 45-54, fibromyalgia for 15 years, after four weeks of ribose, at least 20 grams per day, before: much worse, after cell wraps r10-r11: somewhat better) was “somewhat” and the “Activities (12 total) limited a lot, after” value ([4]; Subject #1, after four weeks of ribose, before: 8 of 12 limited a lot) was 1 of 12 limited a. For the same compound, the “Energy, after” value ([4]; Subject #1, after four weeks of ribose, before: little of the time, after cell wraps r11-r12: all of the time) was “all of the”, the “Pain, after” value ([4]; Subject #1, after four weeks of ribose, before: very severe) was “moderate” and the “General health compared to last year, after” value ([4]; Subject #2, 50-55, fibromyalgia for several years, after four weeks of ribose, before: somewhat better) was “much better”. For the same compound, the “Activities (12 total) limited, after” value ([4]; Subject #2, after four weeks of ribose, before: 2 of 12 limited a lot) was 0 of 12 limited, the “Energy, after” value ([4]; Subject #2, after four weeks of ribose, before: none of the time, after cell wraps r16-r17: some of the time) was “some of the” and the “Pain, after” value ([4]; Subject #2, after four weeks of ribose, before: severe) was “moderate”. The Energy ([4]; Subject #3) was “more energetic”, the “Energy after cessation of administration” value ([4]; Subject #3) was “next-day loss of energy” and the “Severe pain at the tender points” value ([4]; Subject #3) was “did not feel a decrease in severe pain at the tender points”. The “Fatigue level and achiness” value ([4]; Subject #3, compliant with protocol, no profile) was “improvement in their fatigue level and less achiness”, the “Energy when ribose is taken on feeling exhausted” value ([4]; Subject #4, did not follow the protocol) was “feel more energetic” and the “Energy and aching after suspending ribose administration” value ([4]; Subjects #1 and #2, on suspending ribose) was “drop in energy and increase in aching within a day”. The “Overall relief from symptoms of fibromyalgia” value ([4]; all subjects of the pilot study) was “all reported some alleviation”.
